Data on 21 compounds can be found in ChEMBL document CHEMBL6083227, “Novel sulfonamides unveiled as potent anti-lung cancer agents via tumor pyruvate kinase M2 activation” (RSC Med Chem, 2024).

Structures are written as SMILES.

The subject of assay [1] is BEAS-2B. Nature of the assay: Antiproliferative activity against human BEAS-2B cells incubated for 48 hrs by Alamar blue staining based assay.
The target of assay [2] is Pyruvate kinase PKM (Homo sapiens, UniProt P14618). Nature of the assay: Activation of recombinant human PKM2 using pyruvate as substrate measured for 20 mins in presence of beta-NADH by LDH-coupled assay.
The test system of assay [3] is A549. In words: Antiproliferative activity against human A549 cells incubated for 48 hrs by Alamar blue staining based assay. The following applies: A549, 48 h.

Pyruvate kinase PKM, sequence (P14618 whole entry): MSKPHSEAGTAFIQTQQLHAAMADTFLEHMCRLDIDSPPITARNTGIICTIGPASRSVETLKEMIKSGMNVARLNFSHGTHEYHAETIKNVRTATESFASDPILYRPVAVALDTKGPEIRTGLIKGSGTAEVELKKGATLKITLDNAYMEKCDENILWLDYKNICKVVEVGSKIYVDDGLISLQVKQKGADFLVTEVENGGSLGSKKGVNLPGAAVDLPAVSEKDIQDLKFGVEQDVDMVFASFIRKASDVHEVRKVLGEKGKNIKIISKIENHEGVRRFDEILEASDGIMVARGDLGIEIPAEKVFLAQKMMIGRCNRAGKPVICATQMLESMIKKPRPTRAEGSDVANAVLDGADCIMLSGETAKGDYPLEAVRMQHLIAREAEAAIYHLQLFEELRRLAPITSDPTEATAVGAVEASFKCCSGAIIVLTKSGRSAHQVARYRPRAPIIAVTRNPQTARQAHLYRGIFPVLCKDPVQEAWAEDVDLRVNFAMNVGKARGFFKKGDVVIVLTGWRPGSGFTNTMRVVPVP

In the case of `O=C(CN1CCN(S(=O)(=O)c2ccc(F)cc2)CC1)c1cnc2ccccn12`, the IC50 turned out to be 52.2 µM in assay [1] and 1.68 µM in assay [3]. Moreover, in assay [2], the EC50 is 0.382 µM.

Regarding `O=C(CN1CCN(S(=O)(=O)c2ccc([N+](=O)[O-])cc2)CC1)c1cnc2ccccn12`, the IC50 in assay [1] was 20.1 µM; in assay [3], 1.46 µM. In addition, the EC50 in assay [2] was found to be 0.649 µM.

Turning to `O=C(CN1CCN(S(=O)(=O)c2ccccc2)CC1)c1cnc2ccccn12`, the IC50 amounted to 44.7 µM in assay [1] and 1.69 µM in assay [3]. Further, in assay [2], the EC50 was determined as 0.141 µM.

As to `Nc1cccc(S(=O)(=O)N2CCCN(S(=O)(=O)c3ccc4c(c3)OCCO4)CC2)c1`, the IC50 in assay [1] came out at 35.2 µM; in assay [3], 1.46 µM.

With `O=C(CN1CCN(S(=O)(=O)c2cc(F)ccc2F)CC1)c1cnc2ncccn12`, the IC50 is 26.5 µM in assay [1] and 1.26 µM in assay [3]. In addition, in assay [2], the EC50 was 0.648 µM.

As to `N#Cc1ccccc1S(=O)(=O)N1CCN(CC(=O)c2cnc3ccccn23)CC1`, the IC50 in assay [1] stood at 55.7 µM; in assay [3], 1.51 µM. Also, the EC50 in assay [2] is 0.147 µM.

For `O=C(CN1CCN(S(=O)(=O)c2ccc(C(F)(F)F)cc2)CC1)c1cnc2ncccn12`, the results for the half-inhibitory concentration (IC50) in assay [1] and in assay [3] were 15.9 µM and 1.23 µM, respectively. Also, the EC50 in assay [2] is 0.211 µM.

Regarding `O=C(CN1CCN(S(=O)(=O)c2ccc(F)cc2Cl)CC1)c1cnc2ncccn12`, the IC50 in assay [1] stood at 16.8 µM; in assay [3] it was 1.72 µM. Moreover, in assay [2], the EC50 stood at 0.612 µM.

For `Cc1cc(C)c(S(=O)(=O)N2CCN(CC(=O)c3cnc4ccccn34)CC2)c(C)c1`, the IC50 turned out to be 11.5 µM in assay [1] and 1.68 µM in assay [3]. Also, the EC50 in assay [2] was 0.181 µM.

Consider `O=C(CN1CCN(S(=O)(=O)C2CCCCC2)CC1)c1cnc2ccccn12`, for which the IC50 in assay [1] was 60.6 µM; in assay [3], 1.65 µM. In addition, in assay [2], the EC50 is 0.889 µM.

For the compound `O=C(CN1CCN(S(=O)(=O)c2cccc(Br)c2)CC1)c1cnc2ncccn12`, the half-inhibitory concentration (IC50) came out at 39 µM in assay [1] and 1.14 µM in assay [3]. For the same compound, in assay [2], the EC50 was 0.634 µM.

In the case of `O=C(CN1CCN(S(=O)(=O)c2ccc(F)cc2Cl)CC1)c1cnc2ccccn12`, the IC50 in assay [1] stood at 37.8 µM; in assay [3] it was 0.95 µM. Further, in assay [2], the EC50 is 0.205 µM.

`COc1ccc(-c2ccc(S(=O)(=O)N3CCN(CC(=O)c4cnc5ncccn45)CC3)cc2)cc1`: the results for the IC50 in assay [1] and in assay [3] were 9.13 µM and 1.6 µM, respectively. In addition, the concentration for a half-maximal effect (EC50) in assay [2] is 0.435 µM.

With `O=C(CN1CCN(S(=O)(=O)c2cccc(Br)c2)CC1)c1cnc2ccccn12`, the IC50 in assay [1] worked out at 39.9 µM; in assay [3], 1.67 µM. In assay [2], the concentration giving a half-maximal response (EC50) is 0.606 µM.

In the case of `O=C(CN1CCN(S(=O)(=O)C2CC2)CC1)c1cnc2ncccn12`, the IC50 in assay [1] is 53.5 µM; in assay [3], 1.76 µM. Also, in assay [2], the EC50 was found to be 0.092 µM.

On to `COc1cccc2c1C(=O)c1c(O)c3c(c(O)c1C2=O)C[C@@](O)(C(=O)CO)C[C@@H]3O[C@H]1C[C@H](N)[C@H](O)[C@H](C)O1` [DOXORUBICIN], for which the figures for the IC50 in assay [1] and in assay [3] were 24.7 µM and 1.64 µM, respectively.

For the compound `O=C(CN1CCN(S(=O)(=O)c2ccc(C(F)(F)F)cc2)CC1)c1cnc2ccccn12`, the IC50 is 61.4 µM in assay [1] and 1.3 µM in assay [3]. Besides, the EC50 in assay [2] came to 0.55 µM.

Turning to `Cc1ccc(S(=O)(=O)N2CCN(CC(=O)c3cnc4ncccn34)CC2)cc1`, the figures for the IC50 in assay [1] and in assay [3] were 39.6 µM and 1 µM, respectively. Further, the EC50 in assay [2] was 0.105 µM.

Turning to `COc1ccc(S(=O)(=O)N2CCN(CC(=O)c3cnc4ccccn34)CC2)cc1`, the IC50 in assay [1] stood at 46.1 µM; in assay [3], 1.83 µM. In addition, the EC50 in assay [2] is 0.042 µM.

As for `COc1ccc(Br)cc1S(=O)(=O)N1CCN(CC(=O)c2cnc3ccccn23)CC1`, the IC50 in assay [1] is 30.9 µM; in assay [3] it was 1.44 µM. Besides, the EC50 in assay [2] was determined as 0.329 µM.

With `O=C(CN1CCN(S(=O)(=O)c2cccs2)CC1)c1cnc2ccccn12`, the IC50 in assay [1] amounted to 30.5 µM; in assay [3] it was 1.14 µM. In assay [2], the EC50 was determined as 0.134 µM.
